Measured values taken from PubChem BioAssay AID504893 (The Scripps Research Institute Molecular Screening Center, 2011).

Molecular target: cAMP-dependent protein kinase type II-beta regulatory subunit (Homo sapiens) (UniProt P31323)
Assay: PKAc release from R2B regulatory subunit – biochemical, fluorescence polarization, EC50, human R2B, selectivity assay for PKA-R1A activator project, dose response (AID 504893)
Details: PKA-R2B holoenzyme, Cy5-IP20 fluorescence polarization activation

Sequence of cAMP-dependent protein kinase type II-beta regulatory subunit (Homo sapiens) (P31323 whole entry, looked up): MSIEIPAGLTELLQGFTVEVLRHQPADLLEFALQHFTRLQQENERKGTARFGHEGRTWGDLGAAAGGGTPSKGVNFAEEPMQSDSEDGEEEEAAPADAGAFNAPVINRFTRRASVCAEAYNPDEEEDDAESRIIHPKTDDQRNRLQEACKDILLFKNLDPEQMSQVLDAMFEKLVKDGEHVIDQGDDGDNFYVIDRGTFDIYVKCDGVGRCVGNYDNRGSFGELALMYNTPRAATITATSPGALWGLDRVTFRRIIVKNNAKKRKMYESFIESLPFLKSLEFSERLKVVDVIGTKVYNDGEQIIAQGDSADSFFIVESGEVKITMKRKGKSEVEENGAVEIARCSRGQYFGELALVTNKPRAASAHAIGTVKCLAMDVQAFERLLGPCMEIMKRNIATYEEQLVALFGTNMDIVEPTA

Row | EC50 | SMILES
1 | 2.16 µM | Nc1nc2c(nc(Br)n2[C@@H]2O[C@@H]3COP(=O)(O)O[C@H]3[C@H]2O)c(=O)[nH]1
2 | 3.75 µM | CCOP1(=O)OCC2OC(n3cnc4c(N)ncnc43)C(O)C2O1 (stereo not given)
3 | 0.0511 µM | Nc1ncnc2c1nc(Br)n2[C@@H]1O[C@@H]2COP(=O)(O)O[C@H]2[C@H]1O
4 | 0.0505 µM | Nc1ncnc2c1nc(Sc1ccc(Cl)cc1)n2[C@@H]1O[C@@H]2COP(=O)(O)O[C@H]2[C@H]1O
5 | 9.1 µM | CCCC(=O)Nc1ncnc2c1ncn2[C@@H]1O[C@@H]2OP(=O)(O)OC[C@H]2[C@H]1OC(=O)CCC
